# Measurements: patent US10610517B2, “Compositions and methods for treating neoplastic diseases” (Celgene International II Sàrl, priority 2004, dated 2020)
# Read-outs that look alike come from different tables or passages of the source.
# Tests used:
# [1] = target: T1, human erythrocyte-derived 20S proteasome (Homo sapiens, UniProt P28072+P28074+Q99436); assay: In vitro 20S proteasome activity assay; type: biochemical; conditions: Suc-LLVY-AMC, Z-LLE-AMC, Boc-LRR-AMC substrates; FIG. 1
# T1 construct: Purified human erythrocyte-derived 20S proteasome were obtained from Biomol; purchased Biomol, Plymouth Meeting, Pa; host or cells: purified from human erythrocytes
# Experimental: The chymotrypsin-like activity of the 20S proteasome was measured as described in Stein, R. L., Melandri, F. & Dick, L. (1996) Biochemistry 35, 3899-908 and Lightcap, E. S., McCormack, T. A., Pien, C. […] Purified human erythrocyte-derived 20S proteasome were obtained from Biomol, Plymouth Meeting, Pa. The chymotrypsin-like, caspase-like and trypsin-like activity activities of the 20S proteasome were determined using Suc-LLVY-AMC, Z-LLE-AMC (Boston Biochem, Cambridge, Mass.) and Boc-LRR-AMC (Bachem Bioscience, King of Prussia, Pa.) as peptide substrates, respectively. Fluorescence of the cleaved peptide substrate was measured using a Fluoroskan Ascent 96-well microplate reader (Thermo Electron, Waltham, Mass.). The EC50 values were calculated by Prism (GraphPad Software) using a sigmoidal dose-response, variable slope model. The EC50 values were defined as the drug concentration at which 50% of the maximal relative fluorescence is inhibited.
# MM.1S cells = assay: cells; conditions: for viable cells: FIG. 12D
# From the text: MM.1S cells were also transiently transfected using Cell line Nucleofecto kit V, according to the manufacturer's instructions (Amaxa Biosystems, Germany), with vector alone, DN-caspase-8, DN-caspase-9, or DN-FADD and cotransfected with vector containing green fluorescence protein (GFP) alone.
# It was next determined whether inhibition of an upstream signaling pathway that leads to caspase-8 activation affects the response to the compound of formula (II) (X=Cl) or Bortezomib. The Fas-associated death domain (FADD) protein is an important part of the deathinducing signaling complexes (DISCs) that assemble upon engagement of TNF receptor family members, such as Fas, resulting in proteolytic processing and autoactivation of pro-caspase-8. Since both the compound of formula (II) (X=Cl) and Bortezomib trigger caspase-8 activation, the role of FADD during this event in MM cells was evaluated using DN-FADD.
# MM.1S MM cells = assay: VEGF-induced migration of MM cells; type: cell-based, human; conditions: 7 or 10 nM; FIG. 8
# Experimental: VEGF is elevated in the bone marrow microenvironment and triggers migration, growth, and angiogenesis in MM cells. See Podar, K., Tai, Y. T., Lin, B. K., Narsimhan, R. P., Sattler, M., Kijima, T., Salgia, R., Gupta, D., Chauhan, D. & Anderson, K. C. […] Thus, whether the compound of formula (II) (X=Cl) alters VEGF-induced migration of MM cells was evaluated. VEGF induced migration was examined in the presence or absence of the compound (7 or 10 nM). Cell migration was assayed as described previously in Podar, K., Tai, Y. T., Davies, F. E., Lentzsch, S., Sattler, M., Hideshima, T., Lin, B. K., Gupta, D., Shima, Y., Chauhan, D., Mitsiades, C., Raje, N., Richardson, P. & Anderson, K. C. […] These findings indicate that the compound may negatively regulate both homing of MM cells to the bone marrow and their egress into the peripheral blood.
# RPMI 8226 MM cells = type: in vivo, beige-nude-xid (BNX) mice
# [2] = system: MM.1S, MM.1R, RPMI-8226, Dox-40, OPM2 and U266 cells; assay: MTT cell viability of MM cell lines; type: cell-based, human; conditions: 24 h, range over all six cell lines; FIG. 5A
# From the text: Results are mean±S.D from three independent experiments (P<0.005; n=3 for all Cell lines).
# Bax = assay: Immunoblot of Bax in mitochondrial protein extracts; type: cell-based, human; conditions: MM.1S cells; FIG. 12E
# Experimental: Immunoblot analysis was performed using antibodies to cytochrome-c, Smac, Caspase-8, -9, or -3 (Cell Signaling, Beverly, Mass.), tubulin (Sigma, St. Louis, Mo.), PARP, Hsp60, or Bax (BD Bioscience Pharmingen, San Diego, Calif.). Blots were developed by enhanced chemiluminesence (ECL; Amersham, Arlington Heights, Ill.).
# Previous studies have established that Bax induces mitochondrial apoptotic pathway. See Wei, M. C., Zong, W. X., Cheng, E. H., Lindsten, T., Panoutsakopoulou, V., Ross, A. J., Roth, K. A., MacGregor, G. R., Thompson, C. B. & Korsmeyer, S. J. (2001) Science 292, 727-30 and Lei, K., Nimnual, A., Zong, W. X., Kennedy, N. J., Flavell, R. A., Thompson, C. […] Thus, whether MM cell apoptosis induced by the compound of formula (II) (X=Cl) correlates with alterations in Bax was evaluated. […] Blots are representatives of three independent experiments.
# [3] = system: purified (CD138-positive) patient MM cells; assay: DNA fragmentation apoptosis assay on purified patient MM cells
# [4] = 0.25 or 0.5 mg/kg orally twice a week
structure (smiles),measurement,setting,value
CC12OC(=O)C1(C(O)C1C=CCCC1)NC(=O)C2CCCl (centres unmarked) [compound of formula (II) (X=Cl)],"inhibition of chymotrypsin-like, caspase-like and trypsin-like activities of the 20S proteasome",[1],inhibits all three proteasome activities
same,viable cells,MM.1S cells; DN-FADD-transfected MM.1S cells,76%±5.1
same,effect of caspase-8 blockade on triggered cell death,"MM.1S cells; IETD-fmk, FIG. 12A",significant decrease in cell death
same,effect of caspase-9 inhibition on decreased viability,"MM.1S cells; LEHD-FMK, FIG. 12A",only moderately blocked
same,IC50,"MM.1S cells; MM.1S cells, concentration used for treatment",7 nM
same,survival of DN-caspase-8-transfected compared to DN-caspase-9-transfected cells,"MM.1S cells; treated at IC50, FIG. 12B",markedly increased survival
same,viable cells,MM.1S cells; vector-transfected MM.1S cells,42%±2.0
same,effect of caspase-3 inhibition on induced apoptosis,"MM.1S cells; z-VAD-fmk, FIG. 12A",markedly abrogates
same,VEGF-induced migration,MM.1S MM cells,decreases VEGF-induced migration
same,MM tumor growth,RPMI 8226 MM cells; [4],significantly inhibits MM tumor growth
same,survival,RPMI 8226 MM cells; [4],prolongs survival
same,neurological behavioral changes,"RPMI 8226 MM cells; after 12 weeks of treatment, oral",no neurological behavioral changes were observed
same,treated mice with no recurrence of tumor,"RPMI 8226 MM cells; day 300, oral, FIG. 10C",57%
same,tumor progression,"RPMI 8226 MM cells; i.v. twice weekly (compound 0.15 mg/kg; Bortezomib 1.0 mg/kg), p<0.01",significantly reduced the tumor progression
same,survival,"RPMI 8226 MM cells; i.v. twice weekly (compound 0.15 mg/kg; Bortezomib 1.0 mg/kg), p=0.0137",prolonged survival
same,tolerability and body weight,"RPMI 8226 MM cells; oral 0.25 or 0.5 mg/kg, FIG. 10D","well tolerated by mice, without evidence of weight loss"
same,treated mice with complete regression of tumors,"RPMI 8226 MM cells; oral, twice a week",70%
same,histologic analysis of the inoculation sites,"RPMI 8226 MM cells; versus vehicle, FIG. 10E",disappearance of plasma cells
same,IC50,[2],7 to 24 nM
same,Bax levels in mitochondria,Bax,"little, if any increase in Bax levels in mitochondria"
same,apoptosis by DNA fragmentation assay,"[3]; 10 nM, 24 h, nine relapsed MM patients, FIG. 5B",significant apoptosis
same,increase in apoptosis,"[3]; CD138+ cells of two patients, 20 nM, 24 h, FIG. 6",10-12 fold
same,IC50 for MM cells,[3]; stated in words,within the nanomolar concentration
